Measurements published in US5498755A, “Disubstituted aryl and heteroaryl imines having retinoid-like biological activity” (priority 1994, dated 1996).

tested on: ornithine decarboxylase (ODC); experiment: ODC assay: inhibition of TPA induction of ornithine decarboxylase; assay type: biochemical; conditions: concentration of the test compound which causes 80% inhibition in the ODC assay; TPA-induced ODC
Source text: The retinoic acid-like activity of these compounds is confirmed through the classic measure of retinoic acid activity involving the effects of retinoic acid on ornithine decarboxylase. The original work on the correlation between retinoic acid and decrease in cell proliferation was done by Verma & Boutwell, Cancer Research, 1977, 37, 2196-2201. That reference discloses that ornithine decarboxylase (ODC) activity increased precedent to polyamine biosynthesis. It has been established elsewhere that increases in polyamine synthesis can be correlated or associated with cellular proliferation. Thus, if ODC activity could be inhibited, cell hyperproliferation could be modulated. Although all cases for ODC activity increases are unknown, it is known that 12-O-tetradecanoylphorbol-13-acetate (TPA) induces ODC activity. […] Activity of exemplary compounds of the present invention in the above-described ODC assay is disclosed in Table 2 which provides the IC80 concentration for the respective exemplary compound. ("IC80 " is that concentration of the test compound which causes 80% inhibition in the ODC assay)

SMILES	IC80 conc [nmols]
COC(=O)c1ccc(C=Nc2ccc3c(c2)C(C)(C)CCC3(C)C)cc1 [Compound 1]	14.5
CCOC(=O)c1ccc(C=Nc2ccc3c(c2)C(C)(C)CCC3(C)C)cc1 [Compound 4, N-(5,6,7,8-Tetrahydro-5,5,8,8-tetramethyl)-2-naphthalenyl 4-ethoxycarbonyl benzaldimine]	2.5
CCOC(=O)c1ccc(C(C)=Nc2ccc3c(c2)C(C)(C)CCC3(C)C)cc1 [Compound 5, N-(5,6,7,8-Tetrahydro-5,5,8,8-tetramethyl)-2-naphthalenyl 4-ethoxycarbonyl acetophenone imine]	5.5
CCOC(=O)c1ccc(C=Nc2cc3c(cc2C)C(C)(C)CCC3(C)C)cc1 [Compound 6, N-(5,6,7,8-Tetrahydro-3,5,5,8,8-pentamethyl)-2-naphthalenyl 4-ethoxycarbonyl benzaldimine]	293
CCOC(=O)c1ccc(C=Nc2ccc3c(c2)C(C)(C)CCC3(C)C)nc1 [Compound 7, Ethyl 6-(N-5,6,7,8-tetrahydro-5,5,8,8-tetramethyl-2-naphthalenyl) 3-ethoxycarbonyl-pyridine-6-carboxaldehyde imine]	> 30
CCOC(=O)c1ccc(N=Cc2ccc3c(c2)C(C)(C)CCC3(C)C)cc1 [Compound 9, N-(4'-Ethoxycarbonyl)phenyl 5,6,7,8-tetrahydro-5,5,8,8-tetramethyl,naphthalene-2-carboxaldehyde imine]	9.6
CCOC(=O)c1ccc(N=Cc2ccc3c(c2)C(C)(C)CC(C)(C)O3)cc1 [Compound 10, N-(4'-Ethoxycarbonyl) phenyl 2,2,4,4-tetramethyl-chroman-6-carboxaldehyde imine]	44.0
CCOC(=O)c1ccc(N=Cc2cc3c(cc2C)C(C)(C)CCC3(C)C)cc1 [Compound 11, N-(4'-Ethoxycarbonyl) phenyl-2-(5,6,7,8-tetrahydro-3,5,5,8,8-pentamethyl) naphthalene-2-carboxaldehyde imine]	3.5

tested on: ornithine decarboxylase (ODC); experiment: not given; conditions: literature statement in words; 12-O-tetradecanoylphorbol-13-acetate (TPA) as inducer; cited from earlier work

SMILES	inhibition of TPA induction of ODC activity
CC1=C(/C=C/C(C)=C/C=C/C(C)=C/C(=O)O)C(C)(C)CCC1 [Retinoic acid]	inhibits this induction of ODC activity by TPA
